Test results from PubChem BioAssay AID248 (DTP/NCI, 2004).
Several values for one entry are separate records, joined by “and”; a condition that tells them apart may be missing. Equal values may be shown once. Inconclusive results and toxic doses are left out.

Test system: L1210 leukemia ip in BDF1 mice, survival T/C
Experiment: NCI In Vivo Anticancer Drug Screen. Data for tumor model L1210 Leukemia (intraperitoneal) in B6D2F1 (BDF1) mice
Conditions: higher = longer survival
Outline: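 Read-out is survival time, reported as the treated-group measurement over the vehicle-control measurement.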

For C1CN1c1nc(N2CC2)nc(N2CC2)n1, the T/C (endpoint: mean survival time, dose: 0.05 mg/kg/injection, schedule: Q01DX009 (ip), vehicle: saline) was 94 % of control, the T/C (endpoint: mean survival time, dose: 0.06 mg/kg/injection, schedule: Q01DX009 (ip), vehicle: saline) was 95 % of control and the T/C (endpoint: mean survival time, dose: 0.06 mg/kg/injection, schedule: Q01DX Z (ip), vehicle: saline) was 97 % of control. For the same molecule, the T/C (endpoint: mean survival time, dose: 0.1 mg/kg/injection, schedule: Q01DX009 (ip), vehicle: saline) was 105 % of control, the T/C (endpoint: mean survival time, dose: 0.12 mg/kg/injection, schedule: Q01DX005 (ip), vehicle: saline) was 115 % of control and the T/C (endpoint: mean survival time, dose: 0.12 mg/kg/injection, schedule: Q01DX009 (ip), vehicle: saline) was 107 % of control. For the same molecule, the T/C (endpoint: mean survival time, dose: 0.12 mg/kg/injection, schedule: Q01DX009 (sc), vehicle: saline) was 101 % of control, the T/C (endpoint: mean survival time, dose: 0.12 mg/kg/injection, schedule: Q01DX010 (ip), vehicle: saline) was 110 % of control and the T/C (endpoint: mean survival time, dose: 0.12 mg/kg/injection, schedule: Q01DX Z (ip), vehicle: carboxymethylcellulose (CMC)) was 113 % of control. For the same molecule, the T/C (endpoint: mean survival time, dose: 0.12 mg/kg/injection, schedule: Q01DX Z (ip), vehicle: saline) was 118 % of control, the T/C (endpoint: mean survival time, dose: 0.13 mg/kg/injection, schedule: Q01DX009 (ip), vehicle: saline) was 110 % of control and the T/C (endpoint: mean survival time, dose: 0.13 mg/kg/injection, schedule: Q01DX010 (oral), vehicle: carboxymethylcellulose (CMC)) was 119 % of control. For the same molecule, the T/C (endpoint: mean survival time, dose: 0.16 mg/kg/injection, schedule: Q01DX001 (ip), vehicle: saline) was 109 % of control and 120 % of control, the T/C (endpoint: mean survival time, dose: 0.2 mg/kg/injection, schedule: Q01DX009 (ip), vehicle: saline) was 121 % of control and the T/C (endpoint: mean survival time, dose: 0.25 mg/kg/injection, schedule: Q01DX001 (ip), vehicle: saline) was 103 % of control. The T/C (endpoint: mean survival time, dose: 0.25 mg/kg/injection, schedule: Q01DX005 (ip), vehicle: saline) was 115 % of control, the T/C (endpoint: mean survival time, dose: 0.25 mg/kg/injection, schedule: Q01DX006 (iv), vehicle: saline) was 119 % of control and the T/C (endpoint: mean survival time, dose: 0.25 mg/kg/injection, schedule: Q01DX009 (sc), vehicle: saline) was 123 % of control. For the same molecule, the T/C (endpoint: mean survival time, dose: 0.25 mg/kg/injection, schedule: Q01DX Z (ip), vehicle: carboxymethylcellulose (CMC)) was 119 % of control, the T/C (endpoint: mean survival time, dose: 0.25 mg/kg/injection, schedule: Q01DX Z (sc), vehicle: saline) was 124 % of control and the T/C (endpoint: mean survival time, dose: 0.48 mg/kg/injection, schedule: Q## X008 (ip), vehicle: saline) was 110 % of control. The T/C (endpoint: mean survival time, dose: 0.48 mg/kg/injection, schedule: Q## X016 (ip), vehicle: saline) was 103 % of control, the T/C (endpoint: mean survival time, dose: 0.48 mg/kg/injection, schedule: Q## X024 (ip), vehicle: saline) was 107 % of control and the T/C (endpoint: mean survival time, dose: 0.5 mg/kg/injection, schedule: Q01DX001 (ip), vehicle: saline) was 107 % of control. The T/C (endpoint: mean survival time, dose: 0.5 mg/kg/injection, schedule: Q01DX001 (sc), vehicle: saline) was 112 % of control, the T/C (endpoint: mean survival time, dose: 0.5 mg/kg/injection, schedule: Q01DX006 (iv), vehicle: saline) was 150 % of control and the T/C (endpoint: mean survival time, dose: 0.5 mg/kg/injection, schedule: Q01DX009 (oral), vehicle: saline) was 107 % of control. For the same molecule, the T/C (endpoint: mean survival time, dose: 0.5 mg/kg/injection, schedule: Q01DX010 (oral), vehicle: carboxymethylcellulose (CMC)) was 164 % of control, the T/C (endpoint: mean survival time, dose: 0.5 mg/kg/injection, schedule: Q01DX Z (im), vehicle: saline) was 156 % of control and the T/C (endpoint: mean survival time, dose: 0.5 mg/kg/injection, schedule: Q04DX003 (ip), vehicle: Klucel (hydroxypropylcellulose) (HPC)) was 117 % of control. For the same molecule, the T/C (endpoint: mean survival time, dose: 0.5 mg/kg/injection, schedule: Q## X002 (ip), vehicle: saline) was 109 % of control, the T/C (endpoint: mean survival time, dose: 0.5 mg/kg/injection, schedule: Q## X003 (ip), vehicle: saline) was 110 % of control and 115 % of control and the T/C (endpoint: mean survival time, dose: 0.5 mg/kg/injection, schedule: Q## X006 (ip), vehicle: saline) was 107 % of control. For the same molecule, the T/C (endpoint: mean survival time, dose: 0.5 mg/kg/injection, schedule: Q## X024 (ip), vehicle: saline) was 102 % of control, the T/C (endpoint: mean survival time, dose: 0.5 mg/kg/injection, schedule: Q#A X Z (ip), vehicle: saline) was 151 % of control and the T/C (endpoint: mean survival time, dose: 0.67 mg/kg/injection, schedule: Q01DX005 (ip), vehicle: saline) was 153 % of control and 158 % of control. For the same molecule, the T/C (endpoint: mean survival time, dose: 0.7 mg/kg/injection, schedule: Q01DX001 (ip), vehicle: saline) was 103 % of control and 105 % of control, the T/C (endpoint: mean survival time, dose: 0.8 mg/kg/injection, schedule: Q01DX009 (ip), vehicle: saline) was 115 % of control and the T/C (endpoint: mean survival time, dose: 0.86 mg/kg/injection, schedule: Q01DX001 (ip), vehicle: saline) was 159 % of control. The T/C (endpoint: mean survival time, dose: 0.96 mg/kg/injection, schedule: Q## X008 (ip), vehicle: saline) was 106 % of control, the T/C (endpoint: mean survival time, dose: 0.96 mg/kg/injection, schedule: Q## X016 (ip), vehicle: saline) was 111 % of control and the T/C (endpoint: mean survival time, dose: 1.0 mg/kg/injection, schedule: Q01DX001 (sc), vehicle: saline) was 115 % of control. For the same molecule, the T/C (endpoint: mean survival time, dose: 1.0 mg/kg/injection, schedule: Q01DX006 (iv), vehicle: saline) was 114 % of control, the T/C (endpoint: mean survival time, dose: 1.0 mg/kg/injection, schedule: Q01DX009 (oral), vehicle: saline) was 124 % of control and the T/C (endpoint: mean survival time, dose: 1.0 mg/kg/injection, schedule: Q01DX010 (oral), vehicle: carboxymethylcellulose (CMC)) was 119 % of control. The T/C (endpoint: mean survival time, dose: 1.0 mg/kg/injection, schedule: Q01DX Z (ip), vehicle: saline) was 96 % of control and 110 % of control, the T/C (endpoint: mean survival time, dose: 1.0 mg/kg/injection, schedule: Q04DX003 (ip), vehicle: Klucel (hydroxypropylcellulose) (HPC)) was 152 % of control and 173 % of control and the T/C (endpoint: mean survival time, dose: 1.0 mg/kg/injection, schedule: Q## X003 (ip), vehicle: saline) was 177 % of control. The T/C (endpoint: mean survival time, dose: 1.0 mg/kg/injection, schedule: Q## X008 (ip), vehicle: saline) was 108 % of control, the T/C (endpoint: mean survival time, dose: 1.0 mg/kg/injection, schedule: Q#A X Z (ip), vehicle: saline) was 93 % of control and the T/C (endpoint: mean survival time, dose: 1.3 mg/kg/injection, schedule: Q## X003 (ip), vehicle: saline) was 164 % of control. For the same molecule, the T/C (endpoint: mean survival time, dose: 1.3 mg/kg/injection, schedule: Q## X004 (ip), vehicle: saline) was 185 % of control, the T/C (endpoint: mean survival time, dose: 1.5 mg/kg/injection, schedule: Q01DX005 (ip), vehicle: saline) was 118 % of control and the T/C (endpoint: mean survival time, dose: 1.5 mg/kg/injection, schedule: Q04DX003 (ip), vehicle: saline) was 169 % of control. For the same molecule, the T/C (endpoint: mean survival time, dose: 1.75 mg/kg/injection, schedule: Q07DX Z (ip), vehicle: saline) was 193 % of control, the T/C (endpoint: mean survival time, dose: 2.0 mg/kg/injection, schedule: Q01DX001 (oral), vehicle: saline) was 106 % of control and the T/C (endpoint: mean survival time, dose: 2.0 mg/kg/injection, schedule: Q01DX001 (sc), vehicle: saline) was 159 % of control. The T/C (endpoint: mean survival time, dose: 2.0 mg/kg/injection, schedule: Q01DX010 (oral), vehicle: carboxymethylcellulose (CMC)) was 97 % of control, the T/C (endpoint: mean survival time, dose: 2.0 mg/kg/injection, schedule: Q## X002 (ip), vehicle: saline) was 197 % of control and the T/C (endpoint: mean survival time, dose: 2.0 mg/kg/injection, schedule: Q## X003 (ip), vehicle: saline) was 172 % of control and 186 % of control. For the same molecule, the T/C (endpoint: mean survival time, dose: 2.0 mg/kg/injection, schedule: Q## X004 (ip), vehicle: saline) was 191 % of control, the T/C (endpoint: mean survival time, dose: 2.0 mg/kg/injection, schedule: Q## X006 (ip), vehicle: saline) was 193 % of control and the T/C (endpoint: mean survival time, dose: 2.0 mg/kg/injection, schedule: Q## X016 (ip), vehicle: saline) was 168 % of control. The T/C (endpoint: mean survival time, dose: 2.0 mg/kg/injection, schedule: Q## X024 (ip), vehicle: saline) was 188 % of control, the T/C (endpoint: mean survival time, dose: 2.1 mg/kg/injection, schedule: Q01DX001 (ip), vehicle: saline) was 187 % of control and the T/C (endpoint: mean survival time, dose: 3.0 mg/kg/injection, schedule: Q01DX001 (ip), vehicle: saline) was 107 % of control. For the same molecule, the T/C (endpoint: mean survival time, dose: 3.0 mg/kg/injection, schedule: Q## X003 (ip), vehicle: saline) was 150 % of control, the T/C (endpoint: mean survival time, dose: 3.0 mg/kg/injection, schedule: Q## X004 (ip), vehicle: saline) was 108 % of control and the T/C (endpoint: mean survival time, dose: 3.13 mg/kg/injection, schedule: Q01DX001 (ip), vehicle: saline) was 164 % of control. The T/C (endpoint: mean survival time, dose: 3.2 mg/kg/injection, schedule: Q01DX001 (ip), vehicle: saline) was 213 % of control, the T/C (endpoint: mean survival time, dose: 4.0 mg/kg/injection, schedule: Q01DX001 (oral), vehicle: saline) was 122 % of control and the T/C (endpoint: mean survival time, dose: 4.0 mg/kg/injection, schedule: Q01DX009 (oral), vehicle: saline) was 113 % of control. The T/C (endpoint: mean survival time, dose: 4.0 mg/kg/injection, schedule: Q01DX Z (oral), vehicle: saline) was 93 % of control, the T/C (endpoint: mean survival time, dose: 4.0 mg/kg/injection, schedule: Q## X002 (ip), vehicle: saline) was 118 % of control and the T/C (endpoint: mean survival time, dose: 4.0 mg/kg/injection, schedule: Q## X006 (ip), vehicle: saline) was 95 % of control. The T/C (endpoint: mean survival time, dose: 4.5 mg/kg/injection, schedule: Q01DX001 (ip), vehicle: saline) was 94 % of control, the T/C (endpoint: mean survival time, dose: 4.5 mg/kg/injection, schedule: Q## X003 (ip), vehicle: saline) was 98 % of control and the T/C (endpoint: mean survival time, dose: 4.5 mg/kg/injection, schedule: Q## X004 (ip), vehicle: saline) was 106 % of control. For the same molecule, the T/C (endpoint: mean survival time, dose: 8.0 mg/kg/injection, schedule: Q01DX001 (ip), vehicle: saline) was 110 % of control, the T/C (endpoint: mean survival time, dose: 16.0 mg/kg/injection, schedule: Q01DX001 (ip), vehicle: saline) was 107 % of control and the T/C (endpoint: mean survival time, dose: 49.0 micrograms/kg/injection, schedule: Q01DX Z (ip), vehicle: carboxymethylcellulose (CMC)) was 95 % of control. For the same molecule, the T/C (endpoint: mean survival time, dose: 98.0 micrograms/kg/injection, schedule: Q01DX Z (ip), vehicle: carboxymethylcellulose (CMC)) was 97 % of control, the T/C (endpoint: mean survival time, dose: 195.0 micrograms/kg/injection, schedule: Q01DX Z (ip), vehicle: carboxymethylcellulose (CMC)) was 95 % of control and the T/C (endpoint: mean survival time, dose: 390.0 micrograms/kg/injection, schedule: Q01DX Z (ip), vehicle: carboxymethylcellulose (CMC)) was 100 % of control. For the same molecule, the T/C (endpoint: median survival time, dose: 0.25 mg/kg/injection, schedule: Q01DX001 (ip), vehicle: saline) was 104 % of control and the T/C (endpoint: median survival time, dose: 0.5 mg/kg/injection, schedule: Q01DX001 (ip), vehicle: saline) was 115 % of control.
